Experimental data as given in patent publication US11802107B2, “Compounds and methods of use” (Signum Biosciences, Inc., priority 2017, dated 2023).

Legend:
DEFB103 (hBD3) = experiment: NHEK antimicrobial peptide gene expression, hBD3; format: cell-based, human; conditions: 10 μM, 24 hours, qPCR, normalized to GAPDH
Method: Normal human epidermal keratinocytes (NHEKs) from neonatal donors were obtained from Thermo-Fisher (Cat No. C-001-5C). Cells were cultured in 6-well plates for 24 hours before treatments with EpiLife media (Cat No. MEPI500CA) supplemented with keratinocytes growth supplement (Cat No. 50015). On Day 2, media was removed and incubated with test materials (10 μM) for 24 hours at 37° C. and 5% CO2. On Day 3, total RNA was extracted from cells using the RNAqueous® kit (Ambion®; Cat No. 1912) and cDNA was obtained using the High Capacity RNA-to-cDNA kit (Applied Biosystems®; Cat No. 4387406). Quantitative PCR (qPCR) was performed using the TaqMan® Fast Advanced Master Mix (Applied Biosystems®; Cat No. 4444556) and specific TaqMan®-probes human gene primers DEFB4B (hBD2), DEFB103 (hBD3), HCAP18 and GAPDH to calculate the relative gene fold expression change per treatment. Gene expression analysis was performed using the comparative Ct method (also known as the 2-[delta][delta]Ct) approach by comparing the Ct values of the treated samples with the untreated samples and normalized to GAPDH gene expression as endogenous housekeeping gene. Results were represented as fold-expression/untreated cells.

IL-1b = experiment: P. acnes-induced IL-1b protein on human PBMCs (ELISA); format: cell-based; conditions: PBMC, PBMCs + live P. acnes 1:1, test material 30 PM, 24 hours
Method: (§1) Cryopreserved human Peripheral Blood Mononuclear cells (PBMCs) from healthy adult donors were obtained from Zen Bio, Inc (Cat No. SER-PBMC-F). Cells were cultured in 12-well plates with lymphocyte media (Cat No. LYMPH-1) and incubated with test materials ([…]) and live P. acnes (ATCC® 6919TM) at 1:1 PBMC: P. acnes bacteria ratio for 24 hours at 37° C. and 5% CO2. After incubation, cell media supernatants were harvested and used to measure pro-inflammatory cytokine levels (IL-8, TNF-α, IL-1b, IL-17) using ELISA kits (BD Biosciences® #557966, #555212, #555244; R&D Systems® #DY317). Total RNA was extracted from cells using the RNAqueous® kit (Ambion®; Cat No. 1912) and cDNA was obtained using the High Capacity RNA-to-cDNA kit (Applied Biosystems®; Cat No. 4387406). Quantitative PCR (qPCR) was performed using the TaqMan® Fast Advanced Master Mix (Applied Biosystems®; Cat No. 4444556) and specific TaqMan®-probes human gene primers CXCL8 (IL-8), IL1B (IL-1b), TNF (TNF-α), IL17A (IL-17A) and GAPDH to calculate the relative gene fold expression change per treatment. Gene expression analysis was performed using the comparative Ct method (also known as the 2-[delta][delta]Ct) approach by comparing the Ct values of P. acnes-only treated cells with the untreated samples and normalized to GAPDH gene expression as endogenous housekeeping gene.

TNF-α = experiment: P. acnes-induced TNF-α protein on human PBMCs (ELISA); format: cell-based; conditions: PBMCs + live P. acnes 1:1, test material 30 PM, 24 hours
Method: as §1

IL-5 = experiment: T-cell receptor (anti-CD3/CD28)-induced IL-5 on PBMCs; format: cell-based; conditions: Homo sapiens, PBMC, anti-CD3/CD28 beads, 24 hours, ELISA, read-out: TCR-PBMCs IL-5 Protein IC50
Method: (§2) Cryopreserved human Peripheral Blood Mononuclear cells (PBMCs) from healthy adult donors were obtained from Zen Bio, Inc (Cat No. SER-PBMC-F). Cells were cultured in 96-well plates with lymphocyte media (Cat No. LYMPH-1) and were pre-treated with test materials (≤100 μM) for 2 hours and later co-treated with test materials and anti-CD3/CD28 beads (Thermo-Fisher; Cat No. 11131D) at 1:0.4 PBMC:bead ratio for 24 hours at 37° C. and 5% CO2. After incubation, cell media supernatants were harvested and used to measure cytokine levels (IL-4, IL-5, IL-10) using ELISA kits (BD Biosciences® #555194, #555157; R&D Systems® #DY317). Results were represented as percent of inhibition relative to untreated and anti-CD3/CD28 beads-only treated cells. IC50 values were determined by non-linear regression analysis using the four-parameter logistic equation.

LPS-induced cytokines = LPS-induced cytokines on PBMCs; format: cell-based, human; conditions: LPS instead of anti-CD3/CD28 beads
Method: as §2
By a similar method, but instead of anti-CD3/CD28 beads (Thermo-Fisher; Cat No. 11131D), compounds A, C, T and E were treated with LPS (Sigma Aldrich, Cat. No. LF4321) to measure inhibition of LPS-induced cytokines, and compounds C and T were treated with PHA-L (Sigma Aldrich, Cat No. 11249738001) to measure inhibition of PHA-induced cytokines.

Swiss Webster (ICR) mice = experiment: TPA-induced skin irritation in vivo model (mouse ear); conditions: 24 hour
Method: Outbred male Swiss Webster (ICR) mice were purchased from Hilltop Lab Animals (Scottdale, PA) and were used between 10 and 12 weeks of age and we followed a similar protocol previously described (Gordon et al., 2008). Mice received 1.2 μg/20 μl TPA dissolved in acetone (10 μl applied both to the dorsal and ventral surfaces of the mouse ear using a solvent pipette) to each ear to induce acute irritation (6 per group). Test Materials were co-treated with TPA or applied 5 minutes after TPA dose, at various concentrations (0.6 to 800 μg/20 μl) in ethanol. After 24 hour treatment, edema was measured by ear thickness.

IL-23 = experiment: LPS/IFNγ-induced IL-23 on CD14+ monocytes; format: cell-based; conditions: Homo sapiens, Monocyte, 50 μg/mL LPS + 5 μg/mL IFNγ, 24 hours, ELISA
Method: Cryopreserved human peripheral blood monocytes cells (CD14+) from healthy adult donors were obtained from Zen Bio, Inc (Cat No. SER-CD4-F). Cells were cultured in 96-well plates with lymphocyte media (Cat No. LYMPH-1) and were pre-treated with test materials (≤100 μM) for 2 hours and later co-treated with test materials and 50 μg/mL LPS, 5 μg/mL IFNγ (Sigma Aldrich, Cat No. L4321, SRP3058) and incubated for 24 hours at 37° C. and 5% CO2. After incubation, cell media supernatants were harvested and used to measure cytokine levels (IL-23) using ELISA kits (R&D Systems® #DY1290). Results were represented as percent of inhibition relative to untreated and […] treated cells. IC50 values were determined by non-linear regression analysis using the four-parameter logistic equation.

[1] = topical @ 1% w/v, ear thickness

| Structure (SMILES) | IC50 (IL-5) [µM] | IC50 (IL-23) [µM] | hBD3 gene expression (DEFB103 (hBD3)) | inhibition at 30 pM (IL-1b) [%] | TNFa-Protein % inhibition (TNF-α) [%] | inhibition of LPS-induced cytokines (LPS-induced cytokines) | MPO (% inhibition) (Swiss Webster (ICR) mice; topical @ 1% w/v) [%] | Edema (% inhibition) (Swiss Webster (ICR) mice; [1]) [%] | Edema (% inhibition) (Swiss Webster (ICR) mice; topical, AN2728 at 2%) [%] |
| --- | --- | --- | --- | --- | --- | --- | --- | --- | --- |
| C/C(=C\CSC[C@H](NC(=O)N(C)CC(=O)O)C(=O)O)CCCC(C)CCCC(C)CCCC(C)C (stereo partly drawn) [Compound C, (2R)-2-{[(carboxymethyl)(methyl)carbamoyl]amino}-3-{[(2E)-3,7,11,15-tetramethylhexadec-2-en-1-yl]sulfanyl}propanoic acid] | 46 | 0.19 | 9.5 Fold-expression/untreated cells | 36 | 0 | did not show significant inhibition | 88 | 64 | – |
| C/C(=C\CSC[C@H](NC(=O)N1CCC[C@H]1C(=O)O)C(=O)O)CCCC(C)CCCC(C)CCCC(C)C (stereo partly drawn) [Compound E] | 63 | 11.2 | 2.9 Fold-expression/untreated cells | 82 | 0 | did not show significant inhibition | – | – | – |
| C/C(=C\CSCC(NC(=O)N(CC(=O)O)CC(=O)O)C(=O)O)CCCC(C)CCCC(C)CCCC(C)C (stereo not drawn) [Compound G] | – | 3.08 | 4.7 Fold-expression/untreated cells | 91 | 0 | – | – | – | – |
| C/C(=C\CSC[C@H](NC(=O)COCC(=O)O)C(=O)O)CCCC(C)CCCC(C)CCCC(C)C (stereo partly drawn) [Compound T] | 9 | 0.05 | – | – | – | did not show significant inhibition | 83 | 61 | – |

Continued by falling IC50 (IL-5), values first:

| IC50 (IL-5) [µM] | IC50 (IL-23) [µM] | Structure (SMILES) | hBD3 gene expression (DEFB103 (hBD3)) | inhibition at 30 pM (IL-1b) [%] | TNFa-Protein % inhibition (TNF-α) [%] | inhibition of LPS-induced cytokines (LPS-induced cytokines) | MPO (% inhibition) (Swiss Webster (ICR) mice; topical @ 1% w/v) [%] | Edema (% inhibition) (Swiss Webster (ICR) mice; [1]) [%] | Edema (% inhibition) (Swiss Webster (ICR) mice; topical, AN2728 at 2%) [%] |
| --- | --- | --- | --- | --- | --- | --- | --- | --- | --- |
| 55 | – | C/C(=C\CSCC(NC(=O)NCC(=O)O)C(=O)O)CCCC(C)CCCC(C)CCCC(C)C (stereo not drawn) [A] | – | 38 | – | did not show significant inhibition | – | 50 | – |
| 1 | 0.65 | N#Cc1ccc(Oc2ccc3c(c2)COB3O)cc1 [AN2728, reference compound] | – | – | – | – | – | – | 43 |
